Reference: patent US20240352069A1, “SYNTHETIC PEPTIDE, AND COSMETIC COMPOSITION OR PHARMACEUTICAL COMPOSITION AND APPLICATION THEREOF” (SHENZHEN WINKEY TECHNOLOGY CO., LTD., priority 2021, published 2024)

Key:
IL-8 = assay: Anti-inflammatory repair experiment, LPS-stimulated RAW264.7 cells, ELISA IL-8; type: cell-based, mouse; details: 100 ppm, 200 ng/mL LPS, 48 h, vs LPS group
Source text: (§1) Mouse mononuclear macrophages (RAW264.7 cells).
(§2) Peptide (2), tested at a concentration of 100 ppm.
(§3) • a) Take RAW264.7 cells in good exponential growth phase, add 0.25% trypsin digestion solution, digest to make adherent cells fall off, count 1-4×10^6 cells/mL, and make cell suspension; • b) Appropriately dilute 100,000 cells/well of cell suspension and inoculate it on a 6-well plate, and establish an LPS-stimulated inflammation model when the cells reached about 80% confluent. Set blank control group (control), LPS group, dexamethasone group (DXM), polypeptide group. Add 1000 μL culture medium to the blank control group; add 200 ng/mL LPS to the LPS group, add culture medium to 1000 μL; add 200 ng/mL LPS and 50 ng/mL dexamethasone to the dexamethasone group, add culture medium to 1000 μL; add 200 ng/mL LPS and peptide (2) to the polypeptide group, add culture medium to 1000 μL (final test concentration of peptide is 100 ppm). […] The OD value of each well was sequentially measured at 450 nm with a microplate reader within 15 min after the reaction was terminated. […]

IL-6 = assay: Anti-inflammatory repair experiment, LPS-stimulated RAW264.7 cells, ELISA IL-6; type: cell-based, mouse; details: 100 ppm, 200 ng/mL LPS, 48 h, vs LPS group
Source text: as §1, §2, §3

HaCaT cells [1] = assay: UVB light damage repair experiment (MTT), HaCaT; type: cell-based, human; details: UVB irradiated, 12.5-100 ppm, 24 hours
Experimental: (§4) Human keratinocytes (HaCaT) were purchased from the Kunming Cell Bank of the Type Culture Collection Committee of the Chinese Academy of Sciences, and mouse skin fibroblasts (NIH3T3) were purchased from the Shanghai Cell Bank of the Type Culture Collection Committee of the Chinese Academy of Sciences.
(§5) Take cells in good exponential growth phase, add 0.25% trypsin digestion solution, digest to make adherent cells fall off, count 1×10^5-4×10^5 cells/mL, and make cell suspension.
(§6) Cells were seeded into 96-well plates at 10,000 cells/well, and the UVB photodamage model was established when the cells reached about 80% confluent. […]
(§7) After 24 hours, add 22 μL of 5 mg/mL MTT to each well, place in an incubator and incubate for 4 hours, discard the original solution, and add 150 μL/well of DMSO. After 5 minutes, use a microplate reader to read the reference OD values at 490 nm and 630 nm wavelengths.
(§8) By establishing a UVB light-damaged cell model, administering 24 hours after ultraviolet light irradiation, and using the MTT method to detect cell proliferation activity, the ability of the peptide of the present invention to repair light-damaged cells was evaluated.

NIH3T3 cells = assay: UVB light damage repair experiment (MTT), NIH3T3; type: cell-based, mouse; details: UVB irradiated, each dose of 12.5 ppm-100 ppm, 24 hours
Experimental: as §4, §5, §6, §7, §8

HaCaT cells [2] = assay: Scratch test (cell migration); type: cell-based, human; details: 24 hours after scratch; peptides 100 ppm, EGF 50 U/mL; vs normal control group
Experimental: Human keratinocytes (HaCaT) were purchased from the Kunming Cell Bank of the Type Culture Collection Committee of the Chinese Academy of Sciences.
The cryopreserved HaCaT cells were cultured, subcultured to about 5 passages according to the ratio of 1:2, and the cells with better growth were selected as the experimental objects. Cells were seeded in a 12-well plate at a density of 200,000 cells/well, with 2 mL of cell suspension in each well. After the cells adhered to the wall, the medium was replaced with 0.5% to 1% fetal bovine serum to maintain the cells for 24 hours to synchronize them. change. Scratch with a sterilized pipette tip, wash off the dropped cells with PBS, add the sample to be tested, continue to incubate in a 37° C., 5% CO2 incubator, and place it under an optical microscope after 24 hours to analyze the wound healing area.
The cell scratch migration test can reflect the proliferation and repair ability of the cells.

H-Ala-Pro-Phe-Arg-Met-Gly-Ile-Met-Thr-Thr-Asn-OH (H-APFRMGIMTTN-OH) [Peptide (2)]
expression of IL-8 (IL-8): significantly down-regulated | expression of IL-6 (IL-6): significantly down-regulated | effect on improving activity of photodamaged HaCaT cells compared among peptides (1)-(5) (HaCaT cells [1]): better effect on improving cell activity | activity of photodamaged NIH3T3 cells (MTT) (NIH3T3 cells): can significantly increase NIH3T3 cell activity | scratch spacing (proliferation and migration) (HaCaT cells [2]): shorter than that of the normal control group
